Experimental data as given in paper PMC11696302 (Nature Communications, 2025).

Target: T1, yCPT1 (cholinephosphotransferase) (Saccharomyces cerevisiae, UniProt P17898)
T1 sequence (P17898 1-393): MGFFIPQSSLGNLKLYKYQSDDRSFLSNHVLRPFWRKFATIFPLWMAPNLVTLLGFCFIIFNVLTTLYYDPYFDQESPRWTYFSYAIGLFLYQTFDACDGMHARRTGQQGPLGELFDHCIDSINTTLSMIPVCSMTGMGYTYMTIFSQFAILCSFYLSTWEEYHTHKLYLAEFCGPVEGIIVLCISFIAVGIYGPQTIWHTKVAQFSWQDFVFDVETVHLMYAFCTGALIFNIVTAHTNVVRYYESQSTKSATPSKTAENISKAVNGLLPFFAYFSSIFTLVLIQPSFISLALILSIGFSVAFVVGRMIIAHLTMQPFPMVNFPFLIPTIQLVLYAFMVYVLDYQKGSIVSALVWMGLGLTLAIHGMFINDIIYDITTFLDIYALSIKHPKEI
Assay: cryo-EM structure
Type: biochemical

`COc1ccc2c(c[n+](C)c3c4cc5c(cc4ccc23)OCO5)c1OC` [chelerythrine] gave an IC50 of 443 nM.
